According to ChEMBL document CHEMBL1201862, “PubChem BioAssay data set” (2004):
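1) Cells in 96-well plates. 2) Compound, 48 h, 5 concentrations. 3) Linear interpolation between surrounding doses. 4) Unreached endpoint = highest concentration. The concentration for 50% growth inhibition is given as GI50.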 Active and inactive are the calls of the source. Rule as the data show it: active = GI50 up to about 1.1 µM and inactive = higher.

Key:
Assay in all cases: inhibition of tumour cell growth, NCI panel, 48 h
HOP-92 = tested on: HOP-92
Hs-578T = tested on: Hs-578T
HL-60 = tested on: HL-60
UACC-62 = tested on: UACC-62
MOLT-4 = tested on: MOLT-4
ACHN = tested on: ACHN
PC-3 = tested on: PC-3
K562 = tested on: K562
MDA-MB-435 = tested on: MDA-MB-435
IGROV-1 = tested on: IGROV-1
SF-539 = tested on: SF-539
OVCAR-5 = tested on: OVCAR-5
CAKI-1 = tested on: CAKI-1
NCI/ADR-RES = tested on: NCI/ADR-RES
SK-MEL-2 = tested on: SK-MEL-2
SK-MEL-5 = tested on: SK-MEL-5
HOP-62 = tested on: HOP-62
SNB-75 = tested on: SNB-75
HCT-116 = tested on: HCT-116
UACC-257 = tested on: UACC-257
MCF7 = tested on: MCF7
A498 = tested on: A498
SW-620 = tested on: SW-620
DU-145 = tested on: DU-145
BT-549 = tested on: BT-549
T47D = tested on: T47D
NCI-H226 = tested on: NCI-H226
OVCAR-8 = tested on: OVCAR-8
TK-10 = tested on: TK-10
EKVX = tested on: EKVX
COLO 205 = tested on: COLO 205
MDA-MB-231 = tested on: MDA-MB-231
OVCAR-3 = tested on: OVCAR-3
M14 = tested on: M14
SK-MEL-28 = tested on: SK-MEL-28
HCC 2998 = tested on: HCC 2998
Malme-3M = tested on: Malme-3M
A549 = tested on: A549
SN12C = tested on: SN12C
HT-29 = tested on: HT-29
MDA-N = tested on: MDA-N
SF-295 = tested on: SF-295
OVCAR-4 = tested on: OVCAR-4
UO-31 = tested on: UO-31
SNB-19 = tested on: SNB-19
U-251 = tested on: U-251
SR = tested on: SR
KM12 = tested on: KM12
SK-OV-3 = tested on: SK-OV-3
RPMI-8226 = tested on: RPMI-8226
NCI-H23 = tested on: NCI-H23
SF-268 = tested on: SF-268
LOX IMVI = tested on: LOX IMVI
CCRF-CEM = tested on: CCRF-CEM
NCI-H460 = tested on: NCI-H460
786-0 = tested on: 786-0
RXF 393 = tested on: RXF 393
HCT-15 = tested on: HCT-15
NCI-H522 = tested on: NCI-H522

Measured: GI50

CN(Nc1cc(=O)[nH]c(=O)[nH]1)c1ccccc1
inactive: HOP-92 > 100 µM | Hs-578T 52 µM | HL-60 > 100 µM | UACC-62 > 100 µM | MOLT-4 > 100 µM | ACHN > 100 µM | PC-3 > 100 µM | K562 > 100 µM | MDA-MB-435 > 100 µM | IGROV-1 > 100 µM | SF-539 > 100 µM | OVCAR-5 > 100 µM | CAKI-1 > 100 µM | NCI/ADR-RES > 100 µM | SK-MEL-2 > 100 µM | SK-MEL-5 > 100 µM | HOP-62 > 100 µM | SNB-75 58.9 µM | HCT-116 > 100 µM | UACC-257 > 100 µM | MCF7 > 100 µM | A498 > 100 µM | SW-620 > 100 µM | DU-145 > 100 µM | BT-549 > 100 µM | T47D > 100 µM | NCI-H226 > 100 µM | OVCAR-8 > 100 µM | TK-10 > 100 µM | EKVX > 100 µM | COLO 205 > 100 µM | MDA-MB-231 > 100 µM | OVCAR-3 > 100 µM | M14 > 100 µM | SK-MEL-28 > 100 µM | HCC 2998 > 100 µM | Malme-3M > 100 µM | A549 > 100 µM | SN12C > 100 µM | HT-29 > 100 µM | MDA-N > 100 µM | SF-295 > 100 µM | OVCAR-4 > 100 µM | UO-31 > 100 µM | SNB-19 > 100 µM | U-251 > 100 µM | SR > 100 µM | KM12 > 100 µM | SK-OV-3 > 100 µM | RPMI-8226 > 100 µM | NCI-H23 > 100 µM | SF-268 > 100 µM | LOX IMVI > 100 µM | CCRF-CEM > 100 µM | NCI-H460 > 100 µM | 786-0 > 100 µM | RXF 393 > 100 µM

C=C1c2ccccc2C(=O)c2c1c1c(C(=O)OC)c(O)ccc1n2Cc1ccccc1
0.232 µM: HCT-15
inactive: UACC-257 1.71 µM | COLO 205 1.97 µM
active: HOP-92 < 0.01 µM | Hs-578T 0.297 µM | HL-60 0.265 µM | UACC-62 0.284 µM | MOLT-4 0.219 µM | ACHN 0.454 µM | PC-3 0.437 µM | K562 0.323 µM | MDA-MB-435 0.255 µM | IGROV-1 0.234 µM | SF-539 0.228 µM | OVCAR-5 1.1 µM | CAKI-1 0.407 µM | NCI/ADR-RES 0.235 µM | SK-MEL-2 0.817 µM | SK-MEL-5 0.7 µM | HOP-62 0.516 µM | SNB-75 0.264 µM | HCT-116 0.557 µM | MCF7 0.249 µM | NCI-H522 0.237 µM | SW-620 0.342 µM | DU-145 0.242 µM | BT-549 0.585 µM | T47D 0.653 µM | OVCAR-8 0.245 µM | TK-10 0.459 µM | EKVX 0.9 µM | MDA-MB-231 0.355 µM | OVCAR-3 0.151 µM | M14 0.314 µM | SK-MEL-28 0.31 µM | Malme-3M 0.445 µM | A549 1.11 µM | SN12C 0.312 µM | HT-29 0.163 µM | MDA-N 0.32 µM | SF-295 0.574 µM | OVCAR-4 0.558 µM | UO-31 0.512 µM | SNB-19 0.35 µM | U-251 0.333 µM | SR 0.132 µM | KM12 0.459 µM | SK-OV-3 0.346 µM | RPMI-8226 0.175 µM | NCI-H23 0.713 µM | SF-268 0.175 µM | LOX IMVI 0.297 µM | CCRF-CEM 0.203 µM | NCI-H460 0.908 µM | 786-0 0.197 µM | RXF 393 0.267 µM

CC1OC2=N[C@@H]1C(=O)N[C@@H](Cc1ccccc1)C1=N[C@H](C(=O)N[C@@H](Cc3ccccc3)C3=N[C@H](C(=O)N[C@H]2Cc2ccccc2)C(C)O3)C(C)O1 (some centres not stated)
30.6 µM: HCT-15
inactive: HOP-92 18.9 µM | Hs-578T 24.3 µM | UACC-62 30.8 µM | ACHN 31.3 µM | PC-3 22.4 µM | K562 26.7 µM | MDA-MB-435 28 µM | IGROV-1 29.4 µM | SF-539 24.2 µM | OVCAR-5 30.3 µM | CAKI-1 40.4 µM | NCI/ADR-RES 44.6 µM | SK-MEL-2 25.1 µM | SK-MEL-5 24.3 µM | HOP-62 48.3 µM | HCT-116 23.3 µM | UACC-257 30.4 µM | MCF7 45.9 µM | A498 29.9 µM | SW-620 37.2 µM | DU-145 57.9 µM | BT-549 40 µM | T47D 31.1 µM | NCI-H226 29.6 µM | OVCAR-8 26.4 µM | TK-10 26.5 µM | EKVX 49.5 µM | COLO 205 18.6 µM | MDA-MB-231 33 µM | OVCAR-3 28.2 µM | M14 22.6 µM | SK-MEL-28 26.5 µM | HCC 2998 34.5 µM | Malme-3M 22.4 µM | A549 25.5 µM | SN12C 36 µM | HT-29 20 µM | MDA-N 43.2 µM | SF-295 30.7 µM | OVCAR-4 46.2 µM | UO-31 31.8 µM | SR 27.9 µM | KM12 61.1 µM | SK-OV-3 49.7 µM | RPMI-8226 13.5 µM | NCI-H23 37.2 µM | LOX IMVI 17 µM | RXF 393 31.1 µM
